The numbers were not newly measured in patent US6555519B2, “O-glucosylated benzamide SGLT2 inhibitors and method” (Bristol-Myers Squibb Company, priority 2000, dated 2003), which cites them from elsewhere.

A word on the Km: it is the concentration of substrate that gives half-maximal velocity.

SMILES strings stand for the structures.

The target of series [1] is T1, human SGLT2 (Homo sapiens, UniProt P31639).
T1 sequence (P31639 1-672): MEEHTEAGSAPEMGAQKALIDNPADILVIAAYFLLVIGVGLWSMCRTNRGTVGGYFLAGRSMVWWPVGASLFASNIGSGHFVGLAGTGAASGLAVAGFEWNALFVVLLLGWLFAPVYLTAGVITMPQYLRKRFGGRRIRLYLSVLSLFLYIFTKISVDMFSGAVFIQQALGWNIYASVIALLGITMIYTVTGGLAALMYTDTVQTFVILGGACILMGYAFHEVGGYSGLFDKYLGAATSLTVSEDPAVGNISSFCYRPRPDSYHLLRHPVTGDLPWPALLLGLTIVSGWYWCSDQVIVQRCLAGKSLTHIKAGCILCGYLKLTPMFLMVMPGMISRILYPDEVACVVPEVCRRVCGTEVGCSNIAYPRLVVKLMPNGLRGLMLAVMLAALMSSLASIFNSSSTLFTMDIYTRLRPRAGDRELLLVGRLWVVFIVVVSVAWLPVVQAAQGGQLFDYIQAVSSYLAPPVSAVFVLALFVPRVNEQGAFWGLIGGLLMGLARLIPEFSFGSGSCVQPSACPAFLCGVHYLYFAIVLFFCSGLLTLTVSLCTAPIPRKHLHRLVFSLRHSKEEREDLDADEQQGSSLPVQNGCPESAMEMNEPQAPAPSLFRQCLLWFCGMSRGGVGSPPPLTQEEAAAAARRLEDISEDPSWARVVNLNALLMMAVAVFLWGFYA
The note with it: SGLT2 transporter; read-out: Km values for uptake.

Series [2] deals with T2, human SGLT1 (Homo sapiens, UniProt P13866).
T2 sequence (P13866 1-664): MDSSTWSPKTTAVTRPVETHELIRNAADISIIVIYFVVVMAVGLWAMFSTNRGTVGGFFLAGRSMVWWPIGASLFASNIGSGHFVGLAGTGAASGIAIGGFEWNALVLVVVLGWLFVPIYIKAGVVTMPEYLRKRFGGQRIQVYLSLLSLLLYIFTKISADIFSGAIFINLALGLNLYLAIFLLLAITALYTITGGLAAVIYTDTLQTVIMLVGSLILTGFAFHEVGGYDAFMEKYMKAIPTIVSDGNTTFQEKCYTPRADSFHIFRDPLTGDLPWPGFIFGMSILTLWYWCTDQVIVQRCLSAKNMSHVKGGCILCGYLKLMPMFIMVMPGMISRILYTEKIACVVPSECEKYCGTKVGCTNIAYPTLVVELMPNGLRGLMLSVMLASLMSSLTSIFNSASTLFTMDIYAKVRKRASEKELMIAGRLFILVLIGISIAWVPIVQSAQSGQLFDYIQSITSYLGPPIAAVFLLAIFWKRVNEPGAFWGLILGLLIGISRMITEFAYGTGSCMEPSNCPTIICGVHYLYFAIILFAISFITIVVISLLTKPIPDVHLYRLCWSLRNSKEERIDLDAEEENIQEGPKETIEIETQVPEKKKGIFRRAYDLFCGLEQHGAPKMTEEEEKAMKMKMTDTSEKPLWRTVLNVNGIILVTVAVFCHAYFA
Conditions: SGLT1 transporter; read-out: Km values for uptake.

As to `CO[C@H]1O[C@H](CO)[C@@H](O)[C@H](O)[C@H]1O` [AMG, α-methyl-D-glucopyranoside], the Km in series [1] was 1600 µM; in series [2] it was 400 µM.
